We go through ten compounds from ChEMBL document CHEMBL1201862, “PubChem BioAssay data set” (2004).

Structures are written as SMILES.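 Test compounds were applied to cells in 96-well plates for 48 hours at 5 doses. GI50 is the concentration that inhibits growth by half.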 Active and inactive are the calls of the source. No stated cut-off is given here; in the data, active = GI50 up to about 1.1 µM and inactive = higher.

Holding throughout (assay): DTP human tumour cell line panel, 48 h
The subject of test [1] is A498.
The subject of test [2] is A549.
Test [3] deals with ACHN.
For test [4], the system named is COLO 205.
In test [5] the test system is M14.
Test [6] relates to MOLT-4.
Test [7] deals with Malme-3M.
In test [8] the test system is NCI-H23.
Test [9] deals with NCI-H460.
The subject of test [10] is OVCAR-3.
For test [11], the system named is OVCAR-5.
Test [12] deals with RXF 393.
Test [13] relates to SF-268.
Test [14] relates to SK-MEL-2.
Test [15] concerns SK-MEL-5.
Test [16] concerns SK-OV-3.
The subject of test [17] is SN12C.
Test [18] has as its system SW-620.
In test [19] the test system is TK-10.
Test [20] relates to UACC-62.

Turning to `COC(=O)C(F)C(Br)C(=O)OC` (centres undefined), the GI50 (as a rule, the concentration that inhibits growth by half) in test [1] was 20.9 µM (inactive); in [2], 19.7 µM (inactive); in test [3] it was 1.86 µM (inactive); in test [4], 1.67 µM (inactive); in test [5], 5.79 µM (inactive); in test [6], 0.9 µM (active). In addition, the GI50 in test [7] is 6.47 µM (inactive); in test [8], 6.03 µM (inactive); in test [9], 18.9 µM (inactive); in [10] it was 2.11 µM (inactive); in [11], 16.4 µM (inactive); in test [12], 2.18 µM (inactive). The GI50 was 7.71 µM (inactive) in [13]; 16.1 µM (inactive) in test [14]; 18.5 µM (inactive) in [15]; 18.5 µM (inactive) in [16]; 16.9 µM (inactive) in [17]; 1.95 µM (inactive) in test [18]. Further, the GI50 was 2.38 µM (inactive) in test [19] and 15.9 µM (inactive) in test [20].

Take `CC1CC(C[N+](=O)[O-])CC2(C1)OCCO2` (centres undefined): the GI50 in [1], in test [2], in test [3], in test [4], in [5] and in test [6] was > 100 µM (inactive) throughout. Moreover, the GI50 in [7], in test [9], in test [10], in test [12], in test [13] and in test [14] was > 100 µM (inactive) in each case. The GI50 in test [15], in test [16], in test [17], in test [18], in [19] and in test [20] was > 100 µM (inactive) throughout.

Regarding `O=C1CSC(/C=C/c2ccccc2)N1c1nc2cc3sc(N4C(=O)CSC4/C=C/c4ccccc4)nc3cc2s1` (centres undefined), the GI50 in test [1] was > 100 µM (inactive); in test [2] it was 9.82 µM (inactive); in [3], 42.1 µM (inactive); in test [4] it was 3.66 µM (inactive); in test [5] it was > 100 µM (inactive); in [6], 5.9 µM (inactive). For the same compound, the GI50 in test [7] was > 87.1 µM (inactive); in [8], > 48.3 µM (inactive); in [9], 3.33 µM (inactive); in test [10], 38.8 µM (inactive); in test [11], > 65.6 µM (inactive); in test [12], > 100 µM (inactive). Further, the GI50 in test [13] was > 100 µM (inactive); in [14], 33.6 µM (inactive); in test [15], > 46.5 µM (inactive); in test [16] it was > 100 µM (inactive); in test [17] it was 18.3 µM (inactive); in [18], 9.46 µM (inactive). Also, the GI50 in test [19] is 37.2 µM (inactive); in [20], > 100 µM (inactive).

As for `Nc1ccccc1C(=O)N/N=C1\C(=O)Nc2ccccc21`, the GI50 in test [1] is 33.2 µM (inactive); in test [2], > 100 µM (inactive); in [3], 56.4 µM (inactive); in test [4], > 100 µM (inactive); in test [5], > 100 µM (inactive); in test [6], > 100 µM (inactive). Further, the GI50 in test [7] was > 100 µM (inactive); in [8], 56.2 µM (inactive); in test [9], > 100 µM (inactive); in test [10], > 100 µM (inactive); in test [11], > 100 µM (inactive); in test [12], 68.7 µM (inactive). Also, the GI50 was 88.7 µM (inactive) in test [13]; > 100 µM (inactive) in test [14]; > 100 µM (inactive) in test [15]; > 100 µM (inactive) in [16]; > 100 µM (inactive) in [17]; 32.5 µM (inactive) in test [19]. Further, the GI50 in test [20] is > 100 µM (inactive).

In the case of `O=C(NN1C(=O)CSC1c1cccc(F)c1)c1ccncc1` (centres undefined), the GI50 in [1], in test [2], in [3], in [4], in test [5] and in test [6] was > 100 µM (inactive) in each case. Further, the GI50 in test [7], in test [8], in test [11], in test [12], in test [13] and in test [14] was > 100 µM (inactive) in each case. Also, the GI50 in test [15], in test [16], in test [17], in test [18], in [19] and in [20] was > 100 µM (inactive) throughout.

`Cc1ccc(C2CC(c3cccc([N+](=O)[O-])c3)=Nc3ccccc3S2)cc1` (centres undefined): the GI50 in test [1] was > 54.3 µM (inactive); in test [2], 48.8 µM (inactive); in test [3] it was 50.1 µM (inactive); in test [4] it was 98.2 µM (inactive); in test [5], 31.8 µM (inactive); in [6], 25.5 µM (inactive). Further, the GI50 in test [7] was > 88.9 µM (inactive); in test [8], 22.9 µM (inactive); in test [9] it was 68.5 µM (inactive); in test [10] it was 28.5 µM (inactive); in [11] it was > 100 µM (inactive); in test [12] it was 29 µM (inactive). The GI50 in [13] is 34.9 µM (inactive); in test [14], 38.3 µM (inactive); in test [15], 25.4 µM (inactive); in test [16], > 100 µM (inactive); in test [17], 32.9 µM (inactive); in [18], 16.1 µM (inactive). Moreover, the GI50 in [19] is 83.2 µM (inactive); in [20] it was 25.4 µM (inactive).

In the case of `Cc1ccc(OCC2OC(n3cnc4c(Cl)nc(N)nc43)CC2Oc2ccc(C)cc2)cc1` (centres undefined), the GI50 in [1] was > 75 µM (inactive); in test [2], 6.73 µM (inactive); in [3], 15.6 µM (inactive); in test [4], 68.4 µM (inactive); in [5], 9.27 µM (inactive); in test [6] it was 25.2 µM (inactive). For the same compound, the GI50 in test [7] was 24.5 µM (inactive); in [8] it was 19.2 µM (inactive); in [9], 40.6 µM (inactive); in test [10] it was 21.6 µM (inactive); in [11] it was 34.3 µM (inactive); in [12], 39.9 µM (inactive). For the same compound, the GI50 in test [13] was 41.6 µM (inactive); in [14], > 38.1 µM (inactive); in [15], 30.9 µM (inactive); in [16], > 69 µM (inactive); in test [17], 10.4 µM (inactive); in test [18], > 55.3 µM (inactive). The GI50 in test [19] was 58.6 µM (inactive); in test [20], > 63.5 µM (inactive).

Regarding `COc1ccccc1N1C(=O)/C(=C\c2cc(OC)c(OC)c(OC)c2)SC1c1ccccc1` (centres undefined), the GI50 in [1] was > 100 µM (inactive); in [2] it was 57.4 µM (inactive); in test [3], 44.4 µM (inactive); in test [4] it was 24.1 µM (inactive); in [5] it was 16.5 µM (inactive); in test [6], 9.95 µM (inactive). Also, the GI50 is 20.3 µM (inactive) in test [7]; 31.4 µM (inactive) in test [8]; 51.5 µM (inactive) in [9]; 37.5 µM (inactive) in [10]; > 100 µM (inactive) in test [11]; 14.5 µM (inactive) in test [12]. Besides, the GI50 was 31.6 µM (inactive) in [13]; 68.4 µM (inactive) in test [14]; 14.2 µM (inactive) in test [15]; 21.4 µM (inactive) in [16]; 91 µM (inactive) in test [17]; 53.1 µM (inactive) in [18]. The GI50 is 53.3 µM (inactive) in test [19] and 36.1 µM (inactive) in test [20].

Turning to `CN(C)CCNC(=O)c1cc2ccccc2c2nc3ccccc3nc12`, the GI50 in [1] is 1.14 µM (inactive); in test [2], 0.977 µM (active); in test [3], 0.407 µM (active); in [4], 0.828 µM (active); in [5], 1.75 µM (inactive); in [6], 0.153 µM (active). Moreover, the GI50 in test [7] was 0.818 µM (active); in test [8], 1.17 µM (inactive); in [10] it was 2.1 µM (inactive); in test [11], 1.94 µM (inactive); in test [12], 1.02 µM (active); in test [13], 0.0617 µM (active). Besides, the GI50 in [14] was 1.37 µM (inactive); in test [15], 1.79 µM (inactive); in [16], 4.97 µM (inactive); in test [17], 0.736 µM (active); in test [18], 0.484 µM (active); in [19], 1.23 µM (inactive). In addition, the GI50 in test [20] was 2 µM (inactive).

Regarding `COc1ccccc1C(=O)c1c(NCc2ccccc2)c(=O)c1=O`, the GI50 was > 100 µM (inactive) in test [1]; 0.424 µM (active) in test [2]; > 100 µM (inactive) in [3]; 28.3 µM (inactive) in [4]; > 100 µM (inactive) in test [5]; 23.4 µM (inactive) in test [6]. The GI50 was 23.4 µM (inactive) in test [7]; > 100 µM (inactive) in test [8]; > 100 µM (inactive) in [9]; > 100 µM (inactive) in [10]; > 100 µM (inactive) in [11]; 0.0708 µM (active) in test [12]. The GI50 is > 100 µM (inactive) in [13]; > 100 µM (inactive) in [14]; > 100 µM (inactive) in test [15]; > 100 µM (inactive) in test [16]; > 100 µM (inactive) in test [17]; 18.2 µM (inactive) in test [18]. In addition, the GI50 in test [19] and in test [20] was > 100 µM (inactive) throughout.
